In publication PMC2680961, “Homologous desensitization of signalling by the alpha (α) isoform of the human thromboxane A2 receptor: A specific role for nitric oxide signalling” (Biochimica et Biophysica Acta, 2007):
Substitutions are numbered along the chain they refer to. “And” between values parts separate entries of the source, which are not always exact repeats. Identical values can stand only once.

How the values were obtained:
TPα^S331A = target: T1, TPα^S331A (Homo sapiens, UniProt P21731, S331A); test: Agonist-mediated TP phosphorylation in whole cells, HEK.TPα^S331A; assay type: cell-based; conditions: 1 μM U46619 10 min
T1 construct: expressed in transfected cells
T1 sequence (P21731 1-343 S331A): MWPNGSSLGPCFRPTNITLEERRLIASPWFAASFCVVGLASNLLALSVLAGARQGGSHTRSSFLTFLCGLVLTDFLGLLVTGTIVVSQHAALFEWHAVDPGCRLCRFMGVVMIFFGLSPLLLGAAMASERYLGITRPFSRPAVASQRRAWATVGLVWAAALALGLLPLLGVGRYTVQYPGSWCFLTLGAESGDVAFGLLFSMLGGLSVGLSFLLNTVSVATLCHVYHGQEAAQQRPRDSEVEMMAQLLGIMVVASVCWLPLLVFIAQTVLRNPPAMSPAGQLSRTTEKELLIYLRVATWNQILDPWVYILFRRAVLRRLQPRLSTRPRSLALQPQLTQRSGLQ
Method: (§1) Agonist-mediated TP phosphorylation in whole cells (1.8–2 × 10^6 cells/10 cm dish) was performed essentially as previously described. Briefly, cells were transiently co-transfected with pADVA (10 μg), pCMV:Gαq (25 μg) plus pcDNA:βArrestin2 (25 μg) approximately 48 h prior to labelling. Thereafter, cells were washed once in phosphate-free DMEM, 10% dialysed FBS and were metabolically labelled for 60 min in the same medium (2 ml/10 cm dish) containing 100 μCi/ml [^32P] orthophosphate (8000–9000 Ci/mmol) at 37 °C, 5% CO2. Where appropriate, the PKG kinase inhibitor KT 5823 (50 nM) or its vehicle was added during the labelling period. Thereafter, U46619 (1 μM) or an equivalent volume of vehicle (0.01% ethanol in HBS; 20 μl) were added and cells were incubated for 10 min at 37 °C, 5% CO2. Reactions were terminated by transferring the dishes to ice and aspirating the labelled medium and HA-epitope tagged TP receptors were processed and immunoprecipitated using the anti-HA 101R antibody as previously described. Electroblots were then exposed to Xomat XAR (Kodak) film to detect ^32P-labelled proteins. Thereafter, blots were subject to phosphorimage analysis, and the intensities of agonist-induced phosphorylation were expressed in arbitrary units relative to basal (vehicle-stimulated) levels. In parallel experiments, cells were incubated under identical conditions in the absence of [^32P] orthophosphate; HA-tagged TP receptors were immunoprecipitated from the same cell lines using the anti-HA 101R antibody and immunoblots were screened using the anti-HA 3F10 horseradish peroxidase-conjugated antibody.

TPα = target: T2, TPα (Homo sapiens, UniProt P21731); test: Agonist-mediated TP phosphorylation in whole cells, HEK.TPα; assay type: cell-based; conditions: 1 μM U46619 10 min, [32P]orthophosphate labelling, PhosphorImage
T2 construct: expressed in transfected cells
T2 sequence (P21731 1-343): T1 sequence (P21731 1-343 S331A) with A331S
Method: as §1

- U46619-mediated TPα^S331A phosphorylation relative to basal (vehicle) (TPα^S331A): 2 fold
- U46619-mediated TPα phosphorylation relative to basal (vehicle) (TPα): 5–7 fold and 5 fold
SMILES: CCCCC[C@H](O)/C=C/[C@@H]1[C@@H](C/C=C\CCCC(=O)O)[C@H]2CO[C@@H]1C2 [U46619]
